According to paper PMC6017909, “Synthesis and Evaluation of the Tumor Cell Growth Inhibitory Potential of New Putative HSP90 Inhibitors” (Molecules : A Journal of Synthetic Chemistry and Natural …, 2018):

Tests used:
NCI-H460 = assay: Cell-counting assay, 72-h drug exposure; type: cell-based; conditions: Homo sapiens, read-out: Cell Growth Inhibitory Activity NCI-H460 IC50 72 h
Excerpt: (§1) For the cytotoxic activity studies and determination of GI50 concentrations in three different tumor cell lines, the cell culture conditions are described in Section 3.5. For the studies on the effect on % viable cells, cell cycle, cellular proliferation, and apoptosis, culture conditions are described in Section 3.6.1. For the remaining studies, the epithelial carcinoma cell line A431 and the non-small cell lung carcinoma cell line NCI-H460 were routinely grown in RPMI 1640 (Lonza, Vierviers, Belgium), supplemented with 10% (v/v) heat-inactivated fetal bovine serum (FBS, GIBCO, Invitrogen, Paisley, UK). The human peritoneal mesothelioma cell line STO was kindly provided by Dr. N. Zaffaroni (IRCCS Istituto Nazionale Tumori, Milan, Italy) and grown in 50/50 DMEM-Ham’s F12 medium (Lonza, Vierviers, Belgium), supplemented with 10% (v/v) heat-inactivated foetal bovine serum and 2 mM L-glutamine (L-Gln). All cell lines were maintained at 37 °C in a 5%/95% CO2/air atmosphere. All the compounds tested were freshly prepared by dissolving powder in dimethylsulfoxide (DMSO) (BDH Prolabo, Milan, Italy) and following dilution in culture medium. Cells were incubated with drugs for 48 h or 72 h (unless otherwise stated) at 37 °C in culture medium supplemented with 10% (v/v) heat-inactivated FBS; drug concentrations used for each assay and duration of treatments are reported in Legends to Figures.
(§2) Cellular sensitivity to drugs was evaluated by a cell-counting assay after 72-h drug exposure. Cells in the logarithmic phase of growth were seeded in duplicate into 6-well plates. Twenty-four hours after seeding, the drug was added to the medium. Cells were harvested 72 h after drug exposure and counted with a cell counter.

A431 = assay: Cell-counting assay, 72-h drug exposure; type: cell-based; conditions: Homo sapiens, A-431, read-out: Cell Growth Inhibitory Activity A431 IC50 72 h
Excerpt: as §1, §2

HSP90 = molecular target: T1, HSP90 (Homo sapiens, UniProt P07900); assay: HSP90 binding, fluorescence polarization with GM-FITC; conditions: displacement of GM-FITC 5 nM, 30 nM HSP90, 4 °C, 4 h; read-out: Binding HSP90 (FP) IC50
T1 construct: purchased Stressgen SPP-776
Description: GM-FITC Geldanamycin-fluorescein-5-isothiocyanate (working concentration: 1–400 nM), supplied by Invivogen (06C23-MT, San Diego, CA, USA), was previously dissolved in DMSO to obtain 10 mM stock solutions and kept at −20 °C until use. […] The compounds were previously dissolved in DMSO to obtain stock solutions and kept at −20 °C. The day of experiment, the compounds were prepared by serial dilutions in assay buffer (HFB) containing 20 mM HEPES (K) pH 7.3, 50 mM KCl, 5 mM MgCl2, 20 mM Na2MoO4 and 0.01% NP40. Before each use, 0.1 mg/mL Bovine Gamma globulin and 2 mM DTT were freshly added. […] The plate was mixed on a shaker at 4 °C for 4 h, and the FP values in mP (millipolarization units) were recorded. […] Curve fitting was performed using Prism GraphPad software program (GraphPad software, Inc., San Diego, CA, USA).

STO = assay: Cell-counting assay, 72-h drug exposure; type: cell-based; conditions: Homo sapiens, read-out: Cell Growth Inhibitory Activity STO IC50 72 h
Excerpt: as §1, §2

Question: For `O=C1c2ccccc2C(=O)c2c[n+](Cc3ccccc3)ccc21` [Compound 2a, 2-Benzyl-5,10-dioxo-5,10-dihydro-benzo[g]isoquinolinium bromide], which IC50 (NCI-H460) is on record?
Answer: Its IC50 is 0.7 ± 0.01 µM.

Question: And the IC50 (A431)?
Answer: Its IC50 is 0.2 ± 0.01 µM.

Question: Which results are given for `O=C1c2ccccc2C(=O)c2c[n+](Cc3ccc(F)cc3F)ccc21` [Compound 2b, 2-(2,4-Difluoro-benzyl)-5,10-dioxo-5,10-dihydro-benzo[g]isoquinolinium bromide]?
Answer: IC50 (NCI-H460): 3.2 ± 0.5 µM; IC50 (A431): 3.1 ± 0.5 µM

Question: How did the IC50 (A431) turn out when `CC(C)(C)c1ccc(C[n+]2ccc3c(c2)C(=O)c2ccccc2C3=O)cc1` [Compound 2c, 2-(4-tert-Butyl-benzyl)-5,10-dioxo-5,10-dihydro-benzo[g]isoquinolinium bromide] was run?
Answer: Its IC50 is 0.46 ± 0.8 µM.

Question: How did the IC50 (HSP90) turn out when `O=c1c2ccccc2oc2cnccc12` [Compound 4, 5H-chromeno[2,3-c]pyridin-5-one] was run?
Answer: Its IC50 is over 100 µM.

Question: And the IC50 (NCI-H460)?
Answer: Its IC50 is over 50 µM.

Question: And the IC50 (STO)?
Answer: Its IC50 is over 50 µM.

Question: And the IC50 (A431)?
Answer: The IC50 was over 50 µM.

Question: For `O=c1c2ccccc2sc2cnccc12` [Compound 7], which IC50 (HSP90) is on record?
Answer: The IC50 was 2.47 ± 0.09 µM.

Question: And the IC50 (NCI-H460)?
Answer: Its IC50 is over 50 µM.

Question: And the IC50 (STO)?
Answer: The IC50 was 46.9 µM.

Question: What about the IC50 (A431) of the same compound?
Answer: The IC50 was 46.9 µM.

Question: Which IC50 (HSP90) does the source give for `O=c1c2ccccc2oc2c1ccc[n+]2Cc1ccccc1` [Compound 10, 1-Benzyl-10-oxo-10H-9-oxa-1-azonia-anthracene bromide] here?
Answer: The IC50 was over 100 µM.

Question: What about the IC50 (NCI-H460) of the same compound?
Answer: Its IC50 is over 50 µM.

Question: And the IC50 (STO)?
Answer: The IC50 was over 50 µM.

Question: And the IC50 (A431)?
Answer: Its IC50 is over 50 µM.

Question: For `C=CCNC1=C2C[C@@H](C)C[C@H](OC)[C@H](O)[C@@H](C)/C=C(\C)[C@H](OC(N)=O)[C@@H](OC)/C=C\C=C(/C)C(=O)NC(=CC1=O)C2=O` [Compound 17-AAG, 17-N-allylamino-17-demethoxygeldanamycin, reference compound], which IC50 (NCI-H460) is on record?
Answer: The IC50 was 0.01 ± 0.002 µM.

Question: And the IC50 (A431)?
Answer: The IC50 was 0.069 ± 0.005 µM.
